We go through three molecules from patent US8216595B2 (priority 2007, dated 2012).

What all share (details): mouse, in vivo
In one experiment the test system is HA antigen. On the set-up: species or system C57BL/6 female mice.
For experiment [1], the system named is preS antigen. More on the design: species or system C57BL/6 female mice.
The test system of experiment [2] is HBsAg (S-protein). On the set-up: species or system C57BL/6 female mice.
Another experiment deals with HBsAg.
The test system of experiment [3] is preS antigen. On the set-up: species or system C57BL/6 female mice. This is another data set of the same source.
Experiment [4] deals with HBsAg (S-protein). On the set-up: species or system C57BL/6 female mice. The source holds these as a separate data set.

Where two headings read alike, the source gives them in different places.

In the case of “polyinosinic:polycytidylic acid [Poly I:C]”, the HA antibody titer with HA antigen was 8.6 × 10^5. Also, the preS antibody titer with preS antigen [1] is 6.5 × 10^5; in the experiment on preS antigen [3], 2.3 × 10^5. Besides, the “IgG2a/IgG1 (%)” value turned out to be 9.1% in the experiment on HBsAg (S-protein) [2] and 8.04% in the experiment with HBsAg. Also, the results for the “IgG2b/IgG1 (%)” value in the experiment on HBsAg (S-protein) [2] and in the experiment with HBsAg were 66.4% and 89.05%, respectively. Further, the HBsAg antibody titer in the experiment on HBsAg (S-protein) [4] is reported as 6.3 × 10^5.
Take FSL-1: in the experiment on HBsAg, the “IgG2a/IgG1 (%)” value is listed as 9.3% and the “IgG2b/IgG1 (%)” value turned out to be 122.5%. In the experiment on preS antigen [3], the preS antibody titer is reported as 1.4 × 10^5. In addition, the HBsAg antibody titer in the experiment with HBsAg (S-protein) [4] was 4.4 × 10^5.
As to `CCCCCCCCCCCCCCCC(=O)N[C@@H](CSC[C@@H](COC(=O)CCCCCCCCCCCCCCC)OC(=O)CCCCCCCCCCCCCCC)C(=O)N[C@@H](CO)C(=O)N[C@@H](CCCCN)C(=O)N[C@@H](CCCCN)C(=O)N[C@@H](CCCCN)C(=O)N[C@@H](CCCCN)C(=O)O` (racemic) [Pam3Cys-SKKKK, N-palmitoyl-S-[2,3-bis(palmitoyloxy)-(2RS)-propyl]-[R]-cystein-SKKKK], the HA antibody titer with HA antigen is reported as 6.8 × 10^5. Also, the results for the preS antibody titer in the experiment on preS antigen [1] and with preS antigen [3] were 6.2 × 10^5 and 1.3 × 10^5, respectively. The “IgG2a/IgG1 (%)” value in the experiment on HBsAg (S-protein) [2] was found to be 8.9%; in the experiment on HBsAg, 17.4%. For the same molecule, the “IgG2b/IgG1 (%)” value in the experiment on HBsAg (S-protein) [2] turned out to be 153.9%; with HBsAg, 159.4%. For the same molecule, in the experiment on HBsAg (S-protein) [4], the HBsAg antibody titer is on record as 6.5 × 10^5.
